In ChEMBL document CHEMBL1147989, “Synthesis and structure-activity relationships of 4-hydroxy-4-phenylpiperidines as nociceptin receptor ligands: Part 2” (Bioorg Med Chem Lett, 2007):

Tests used:
[1] = molecular target: T1, Nociceptin receptor (Homo sapiens, UniProt P41146); test: Displacement of [125I][Tyr14]nociceptin FQ from human NOP receptor expressed in CHO cell membrane; assay type: cell membranes
[2] = molecular target: Kappa-type opioid receptor (Homo sapiens, UniProt P41145); test: Displacement of [3H]diprenorphine from human KOP receptor expressed in CHO cell membrane; assay type: cell membranes
Sequence of Kappa-type opioid receptor (P41145 whole entry): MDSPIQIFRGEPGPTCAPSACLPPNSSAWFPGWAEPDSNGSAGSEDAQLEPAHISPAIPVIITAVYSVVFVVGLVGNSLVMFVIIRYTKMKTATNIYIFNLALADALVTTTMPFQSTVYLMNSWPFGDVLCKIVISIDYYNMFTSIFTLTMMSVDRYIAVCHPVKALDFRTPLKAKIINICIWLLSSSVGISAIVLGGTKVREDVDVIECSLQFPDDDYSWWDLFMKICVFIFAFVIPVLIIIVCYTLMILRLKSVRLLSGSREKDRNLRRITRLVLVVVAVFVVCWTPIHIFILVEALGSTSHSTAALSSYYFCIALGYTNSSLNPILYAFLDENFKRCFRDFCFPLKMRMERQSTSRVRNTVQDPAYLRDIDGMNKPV

[3] = molecular target: Mu-type opioid receptor (Homo sapiens, UniProt P35372); test: Displacement of [3H]diprenorphine from human MOP receptor expressed in CHO cell membrane; assay type: cell membranes
Sequence of Mu-type opioid receptor (P35372 whole entry): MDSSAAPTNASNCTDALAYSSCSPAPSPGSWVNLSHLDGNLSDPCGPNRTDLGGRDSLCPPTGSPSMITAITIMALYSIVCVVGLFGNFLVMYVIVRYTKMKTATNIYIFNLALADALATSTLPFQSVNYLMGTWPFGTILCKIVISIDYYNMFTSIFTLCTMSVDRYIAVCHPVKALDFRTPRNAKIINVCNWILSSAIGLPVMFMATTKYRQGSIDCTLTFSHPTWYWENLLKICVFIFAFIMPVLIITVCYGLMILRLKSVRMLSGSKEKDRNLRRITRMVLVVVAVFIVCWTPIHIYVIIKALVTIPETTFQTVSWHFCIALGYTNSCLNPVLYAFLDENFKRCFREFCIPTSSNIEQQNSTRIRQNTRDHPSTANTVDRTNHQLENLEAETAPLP

[4] = molecular target: T1, Nociceptin receptor; test: Agonist activity at human NOP receptor transfected in CHO cells assessed as stimulation of [35S]GTPgammaS at 1 uM; assay type: functional, cell-based
[5] = molecular target: Delta-type opioid receptor (Homo sapiens, UniProt P41143); test: Displacement of [3H]diprenorphine from human DOP receptor expressed in CHO cell membrane; assay type: cell membranes
Sequence of Delta-type opioid receptor (P41143 whole entry): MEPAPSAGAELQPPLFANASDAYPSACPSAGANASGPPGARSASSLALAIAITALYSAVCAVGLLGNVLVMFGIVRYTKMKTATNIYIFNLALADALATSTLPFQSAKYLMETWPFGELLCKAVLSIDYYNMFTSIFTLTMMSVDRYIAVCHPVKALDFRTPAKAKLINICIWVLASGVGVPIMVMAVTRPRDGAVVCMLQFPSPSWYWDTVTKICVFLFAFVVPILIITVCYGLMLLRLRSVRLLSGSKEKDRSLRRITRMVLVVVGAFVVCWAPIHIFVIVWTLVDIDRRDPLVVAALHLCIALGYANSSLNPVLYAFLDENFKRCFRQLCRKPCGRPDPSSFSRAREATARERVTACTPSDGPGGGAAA

[6] = molecular target: T1, Nociceptin receptor; test: Activity at human NOP receptor transfected in CHO cells assessed as inhibition of [35S]GTPgammaS at 10 uM; assay type: functional, cell-based
[7] = molecular target: T1, Nociceptin receptor; test: Agonist activity at human NOP receptor transfected in CHO cells assessed as stimulation of [35S]GTP-gamma-S at 100 uM; assay type: functional, cell-based
[8] = molecular target: T1, Nociceptin receptor; test: Activity at human NOP receptor transfected in CHO cells assessed as inhibition of [35S]GTP-gamma-S at 1 uM; assay type: functional, cell-based
[9] = molecular target: T1, Nociceptin receptor; test: Agonist activity at human NOP receptor transfected in CHO cells assessed as stimulation of [35S]GTP-gamma-S at 0.1 uM; assay type: functional, cell-based

T1 sequence (P41146 whole entry): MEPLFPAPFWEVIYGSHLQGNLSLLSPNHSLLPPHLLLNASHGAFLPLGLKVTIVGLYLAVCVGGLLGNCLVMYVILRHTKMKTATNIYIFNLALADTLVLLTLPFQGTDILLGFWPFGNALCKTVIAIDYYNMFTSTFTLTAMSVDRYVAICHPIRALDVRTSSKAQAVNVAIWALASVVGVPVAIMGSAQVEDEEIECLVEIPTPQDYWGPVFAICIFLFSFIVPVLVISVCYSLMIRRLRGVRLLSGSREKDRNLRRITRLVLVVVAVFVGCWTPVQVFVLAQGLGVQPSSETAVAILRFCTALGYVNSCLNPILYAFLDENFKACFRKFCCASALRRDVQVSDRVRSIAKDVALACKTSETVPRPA

SMILES | Ki [1] | Ki [2] | Ki [3] | Ki [5] | also measured
Cc1ccccc1C(c1ccccc1C)N1CCC(O)(c2ccccc2CN)CC1 | 0.5 nM | 450 nM | 190 nM | 8440 nM | Activity [4]: 94%
CCS(=O)(=O)N1CCN(Cc2ccccc2C2(O)CCN(C(c3ccccc3Cl)c3ccccc3Cl)CC2)CC1 | 0.9 nM | 146 nM | 351 nM | 1590 nM | –
Cc1ccsc1C1(O)CCN(C(c2ccccc2)c2ccccc2)CC1 | 15 nM | 2570 nM | 756 nM | 8880 nM | –
CC1(C)CCC(N2CCC(O)(c3ccccc3CN)CC2)c2ccccc21 (configuration not stated) | 5.5 nM | 1350 nM | 181 nM | 23400 nM | inhibition [6]: 43%
OC1(c2cccs2)CCN(C(c2ccccc2)c2ccccc2)CC1 | 48 nM | 3410 nM | 1730 nM | 8450 nM | –
OC1(c2ccccc2CN2CCOCC2)CCN(C(c2ccccc2Cl)c2ccccc2Cl)CC1 | 5.9 nM | 323 nM | 120 nM | 2910 nM | –
Cc1ccc(C(c2ccc(C)cc2)N2CCC(O)(c3ccccc3CN)CC2)cc1 | 110 nM | 1060 nM | 502 nM | 8900 nM | –
OC1(Cc2ccccc2)CCN(C(c2ccccc2)c2ccccc2)CC1 | 2180 nM | 1440 nM | 10400 nM | 15000 nM | –
OC1(c2ccccc2F)CCN(C(c2ccccc2)c2ccccc2)CC1 | 34 nM | 1740 nM | 589 nM | 5610 nM | –
NCc1ccccc1C1(O)CCN(C(c2ccccc2Br)c2ccccc2Br)CC1 | 1.8 nM | 278 nM | 616 nM | 3200 nM | Activity [4]: 104%
CC(C)S(=O)(=O)NCc1ccccc1C1(O)CCN(C(c2ccccc2Cl)c2ccccc2Cl)CC1 | 4.1 nM | 174 nM | 163 nM | 518 nM | –
CNC(=O)NCc1ccccc1C1(O)CCN(C(c2ccccc2Cl)c2ccccc2Cl)CC1 | 2 nM | 215 nM | 198 nM | 1990 nM | –
OC1(c2ccccc2CN2CCNCC2)CCN(C(c2ccccc2Cl)c2ccccc2Cl)CC1 | 1.9 nM | 261 nM | 145 nM | 1170 nM | –
CN(C)c1ccc(C2(O)CCN(C(c3ccccc3)c3ccccc3)CC2)cc1 | 4540 nM | – | – | – | –
NCc1ccccc1C1(O)CCN(C(c2cccc(F)c2)c2cccc(F)c2)CC1 | 9.6 nM | 771 nM | 616 nM | 9380 nM | –
OC1(c2ccccn2)CCN(C(c2ccccc2)c2ccccc2)CC1 | 313 nM | 13200 nM | 11500 nM | 45600 nM | –
CCCCC1(O)CCN(C(c2ccccc2)c2ccccc2)CC1 | 23 nM | 4560 nM | 272 nM | 18800 nM | –
OC1(c2ccc(Br)cc2)CCN(C(c2ccccc2)c2ccccc2)CC1 | 51 nM | 2610 nM | 1060 nM | 15200 nM | –
CN1CCN(Cc2ccccc2C2(O)CCN(C(c3ccccc3Cl)c3ccccc3Cl)CC2)CC1 | 2.2 nM | 139 nM | 190 nM | 1700 nM | –

SMILES | Ki [1] | Ki [2] | Ki [3] | Ki [5] | also measured
COc1ccc(C2(O)CCN(C(c3ccccc3)c3ccccc3)CC2)cc1 | 588 nM | 10300 nM | 11100 nM | 19200 nM | –
Cc1ccccc1C1(O)CCN(C(c2ccccc2)c2ccccc2)CC1 | 11 nM | 818 nM | 74 nM | 1670 nM | Activity [7]: 69%
CCCc1ccc(C2(O)CCN(C(c3ccccc3)c3ccccc3)CC2)cc1 | 1750 nM | 19700 nM | 11400 nM | 33300 nM | –
CC(C)(C)C1(O)CCN(C(c2ccccc2)c2ccccc2)CC1 | 62 nM | 1070 nM | 3600 nM | 56600 nM | –
CCCCC(c1ccccc1)N1CCC(O)(c2ccccc2CN)CC1 (configuration not stated) | 0.4 nM | 15 nM | 2 nM | 1210 nM | –
NCc1ccccc1C1(O)CCN(C(c2ccccc2)c2ccccc2)CC1 | 1.6 nM | 1660 nM | 125 nM | 13900 nM | Ki ([1]; cho): 1.6 nM; Ki ([2]; cho): 1660 nM; Ki ([3]; cho): 125 nM; Ki ([5]; cho): 13900 nM
COc1ccccc1C1(O)CCN(C(c2ccccc2)c2ccccc2)CC1 | 85 nM | 4160 nM | 983 nM | 4390 nM | –
CNCc1ccccc1C1(O)CCN(C(c2ccccc2Cl)c2ccccc2Cl)CC1 | 0.7 nM | 255 nM | 167 nM | 3820 nM | –
OCc1ccccc1C1(O)CCN(C(c2ccccc2)c2ccccc2)CC1 | 16 nM | 2770 nM | 186 nM | 4360 nM | –
OC1(c2ccco2)CCN(C(c2ccccc2)c2ccccc2)CC1 | 136 nM | 9640 nM | 4550 nM | 14500 nM | –
NCc1ccccc1C1(O)CCN(CC2CCCCCC2)CC1 | 4.6 nM | 664 nM | 452 nM | 99500 nM | inhibition [8]: 67%
NCc1ccccc1C1(O)CCN(C(c2ccccc2F)c2ccccc2F)CC1 | 0.5 nM | 116 nM | 37 nM | 3700 nM | –
CCCCCCC1(O)CCN(C(c2ccccc2)c2ccccc2)CC1 | 1150 nM | 9220 nM | 8900 nM | 17900 nM | –
CCNC(=O)NCc1ccccc1C1(O)CCN(C(c2ccccc2Cl)c2ccccc2Cl)CC1 | 12 nM | 330 nM | 304 nM | 2440 nM | –
CCCCCC(c1ccccc1)N1CCC(O)(c2ccccc2CN)CC1 (configuration not stated) | 0.5 nM | 30 nM | 2 nM | 606 nM | –
CC(C)C1(O)CCN(C(c2ccccc2)c2ccccc2)CC1 | 433 nM | 7390 nM | 13200 nM | 52800 nM | –
NCc1ccccc1C1(O)CCN(C(c2ccccc2)c2ccccc2Br)CC1 (configuration not stated) | 1.1 nM | 279 nM | 72 nM | 3290 nM | Activity [4]: 115%
Cc1ccccc1C(c1ccccc1)N1CCC(O)(c2ccccc2CN)CC1 (configuration not stated) | 0.7 nM | 725 nM | 28 nM | 2870 nM | Activity [9]: 119%
N#Cc1ccc(C2(O)CCN(C(c3ccccc3)c3ccccc3)CC2)cc1 | 1450 nM | 61000 nM | 8380 nM | 28400 nM | –

SMILES | Ki [1] | Ki [2] | Ki [3] | Ki [5] | also measured
CCCCc1ccc(C2(O)CCN(C(c3ccccc3)c3ccccc3)CC2)cc1 | 9160 nM | – | – | – | –
NCc1ccccc1C1(O)CCN(C(c2ccccc2Cl)c2ccccc2Cl)CC1 | 0.5 nM | 747 nM | 249 nM | 3000 nM | Activity [4]: 102%
CCc1ccc(C2(O)CCN(C(c3ccccc3)c3ccccc3)CC2)cc1 | 1280 nM | 11400 nM | 3430 nM | 24900 nM | –
COc1cccc(C2(O)CCN(C(c3ccccc3)c3ccccc3)CC2)c1 | 180 nM | 3670 nM | 2990 nM | 9590 nM | –
CCCS(=O)(=O)NCc1ccccc1C1(O)CCN(C(c2ccccc2Cl)c2ccccc2Cl)CC1 | 15 nM | 122 nM | 271 nM | 777 nM | –
OC1(c2ccc(Cl)cc2)CCN(C(c2ccccc2)c2ccccc2)CC1 | 24 nM | 1700 nM | 936 nM | 6360 nM | –
OC1(c2nccs2)CCN(C(c2ccccc2)c2ccccc2)CC1 | 1270 nM | – | – | – | –
OC1(CCCc2ccccc2)CCN(C(c2ccccc2)c2ccccc2)CC1 | 1670 nM | 1800 nM | 3360 nM | 13800 nM | –
OC1(c2ccc(F)cc2)CCN(C(c2ccccc2)c2ccccc2)CC1 | 14 nM | 759 nM | 771 nM | 3320 nM | –
NCc1ccccc1C1(O)CCN(C(c2ccc(Cl)cc2)c2ccc(Cl)cc2)CC1 | 674 nM | 2090 nM | 3080 nM | 3990 nM | –
Cc1cccc(C2(O)CCN(C(c3ccccc3)c3ccccc3)CC2)c1 | 27 nM | 1150 nM | 273 nM | 7800 nM | –
NCc1ccccc1C1(O)CCN(Cc2ccccc2)CC1 | 455 nM | – | – | – | –
NCc1ccccc1C1(O)CCN(C(c2ccccc2)c2ccccc2Cl)CC1 (configuration not stated) | 0.5 nM | 425 nM | 72 nM | 3700 nM | Activity [9]: 116%
OC1(C2CC2)CCN(C(c2ccccc2)c2ccccc2)CC1 | 376 nM | 26400 nM | 18400 nM | 131000 nM | –
Cc1ccc(C2(O)CCN(C(c3ccccc3)c3ccccc3)CC2)cc1 | 55 nM | 4050 nM | 940 nM | 12100 nM | –
OC1(C2CCCCC2)CCN(C(c2ccccc2)c2ccccc2)CC1 | 17 nM | 387 nM | 407 nM | 8110 nM | Activity [7]: 121%
OC1(c2cccc(F)c2)CCN(C(c2ccccc2)c2ccccc2)CC1 | 23 nM | 1990 nM | 705 nM | 5610 nM | Activity [7]: 61%
CC(C)S(=O)(=O)N1CCN(Cc2ccccc2C2(O)CCN(C(c3ccccc3Cl)c3ccccc3Cl)CC2)CC1 | 0.6 nM | 186 nM | 353 nM | 3160 nM | –
